Measurements: patent US20210254056A1, “IDENTIFICATION AND TARGETED MODULATION OF GENE SIGNALING NETWORKS” (CAMP4 THERAPEUTICS CORPORATION, priority 2017, published 2021)

System: hepatocytes
Assay: RNA-seq of hepatocytes treated with Phase III failure compounds
Settings: hepatocytes
Experimental: RNA-seq was performed to determine the effects of the compounds on hepatocytes.
Significance was determined by the criteria of FPKM≥0.5, a log 2(fold-change)≥1, and a […].

## CCC(CC)[C@H](NC(C)=O)[C@@H]1[C@H](O)[C@@H](C(=O)O)C[C@H]1NC(=N)N.O.O.O [peramivir (trihydrate), peramivir]
Gene GPD1
  RNA-seq results, GPD1 expression: 0.37
  RNA-seq results: GPD1 expression: 0
Gene GPHN
  RNA-seq results, GPHN expression: −0.14
  RNA-seq results: GPHN expression: 0.06
Gene GTPBP3
  RNA-seq results, GTPBP3 expression: 0.32
  RNA-seq results: GTPBP3 expression: 0.07
Gene GUSB
  RNA-seq results, GUSB expression: −0.26
  RNA-seq results: GUSB expression: 0.23
Gene GYG1
  RNA-seq results, GYG1 expression: −0.32
  RNA-seq results: GYG1 expression: 0.02
Gene GYS1
  RNA-seq results, GYS1 expression: 0.05
  RNA-seq results: GYS1 expression: 0.12
Gene GYS2
  RNA-seq results, GYS2 expression: −0.03
  RNA-seq results: GYS2 expression: −0.13
Gene H6PD
  RNA-seq results, H6PD expression: 0.18
  RNA-seq results: H6PD expression: −0.01
Gene H19
  RNA-seq results, H19 expression: −0.21
  RNA-seq results: H19 expression: 0.34
Gene HAL
  RNA-seq results, HAL expression: −0.09
  RNA-seq results: HAL expression: −0.17
Gene HAX1
  RNA-seq results, HAX1 expression: −0.12
  RNA-seq results: HAX1 expression: 0.15
Gene HBA1
  RNA-seq results, HBA1 expression: 1.07
  RNA-seq results: HBA1 expression: 0.04
Gene HBB
  RNA-seq results, HBB expression: 0.07
  RNA-seq results: HBB expression: −0.54
Gene HGD
  RNA-seq results, HGD expression: −0.10
  RNA-seq results: HGD expression: −0.18
Gene HLA-B
  RNA-seq results, HLA-B expression: 0.05
  RNA-seq results: HLA-B expression: 0.18
Gene HMBS
  RNA-seq results, HMBS expression: −0.09
  RNA-seq results: HMBS expression: 0
Gene HMGCR
  RNA-seq results, HMGCR expression: −0.11
  RNA-seq results: HMGCR expression: −0.29
Gene HMGCS2
  RNA-seq results, HMGCS2 expression: −0.21
  RNA-seq results: HMGCS2 expression: −0.28
Gene HMOX1
  RNA-seq results, HMOX1 expression: 0.22
  RNA-seq results: HMOX1 expression: 1.28
Gene HNF1A
  RNA-seq results, HNF1A expression: 0.33
  RNA-seq results: HNF1A expression: 0.11
Gene HNF1B
  RNA-seq results, HNF1B expression: −0.02
  RNA-seq results: HNF1B expression: −0.15
Gene HNF4A
  RNA-seq results, HNF4A expression: 0.30
  RNA-seq results: HNF4A expression: −0.01
Gene HOGA1
  RNA-seq results, HOGA1 expression: 0.80
  RNA-seq results: HOGA1 expression: 0.01
Gene HPD
  RNA-seq results, HPD expression: 0.10
  RNA-seq results: HPD expression: 0.06
Gene HPGD
  RNA-seq results, HPGD expression: −0.69
  RNA-seq results: HPGD expression: −0.7
Gene HPS4
  RNA-seq results, HPS4 expression: −0.04
  RNA-seq results: HPS4 expression: 0.26
Gene HPS5
  RNA-seq results, HPS5 expression: −0.12
  RNA-seq results: HPS5 expression: −0.18
Gene HPS6
  RNA-seq results, HPS6 expression: 0.31
  RNA-seq results: HPS6 expression: 0.23
Gene HPX
  RNA-seq results, HPX expression: −0.17
  RNA-seq results: HPX expression: 0.2
Gene HRAS
  RNA-seq results, HRAS expression: −0.15
  RNA-seq results: HRAS expression: 0.31
Gene HRSP12
  RNA-seq results, HRSP12 expression: −0.47
  RNA-seq results: HRSP12 expression: −0.3
Gene HSD3B7
  RNA-seq results, HSD3B7 expression: −0.05
  RNA-seq results: HSD3B7 expression: 0.26
Gene HSD17B10
  RNA-seq results, HSD17B10 expression: −0.09
  RNA-seq results: HSD17B10 expression: 0.15
Gene HYLS1
  RNA-seq results: HYLS1 expression: −0.60
Gene ID1
  RNA-seq results: ID1 expression: 0.13
Gene IDH1
  RNA-seq results: IDH1 expression: −0.29
Gene IDH2
  RNA-seq results: IDH2 expression: −0.11
Gene IDUA
  RNA-seq results: IDUA expression: 0.23
Gene IFIH1
  RNA-seq results: IFIH1 expression: −0.40
Gene IFNAR2
  RNA-seq results: IFNAR2 expression: −0.51
Gene IFT27
  RNA-seq results: IFT27 expression: −0.11
Gene IFT80
  RNA-seq results: IFT80 expression: 0.00
Gene IFT122
  RNA-seq results: IFT122 expression: −0.15
Gene IFT140
  RNA-seq results: IFT140 expression: 0.44
Gene IFT172
  RNA-seq results: IFT172 expression: 0.36
Gene IGFALS
  RNA-seq results: IGFALS expression: 0.33
Gene IKBKG
  RNA-seq results: IKBKG expression: 0.48
Gene IL1RN
  RNA-seq results: IL1RN expression: −0.20
Gene IL2RG
  RNA-seq results: IL2RG expression: −0.08
Gene INSR
  RNA-seq results: INSR expression: 0.01
Gene INVS
  RNA-seq results: INVS expression: −0.15
Gene ISYNA1
  RNA-seq results: ISYNA1 expression: 0.20
Gene ITGB3
  RNA-seq results: ITGB3 expression: 0.02
Gene IYD
  RNA-seq results: IYD expression: −0.15
Gene JAG1
  RNA-seq results: JAG1 expression: 0.14
Gene JAK2
  RNA-seq results: JAK2 expression: −0.26
Gene KCTD7
  RNA-seq results: KCTD7 expression: 0.26
Gene KCTD11
  RNA-seq results: KCTD11 expression: 0.53
Gene KHK
  RNA-seq results: KHK expression: 0.13
Gene KIAA0586
  RNA-seq results: KIAA0586 expression: −0.32
Gene KMT2D
  RNA-seq results: KMT2D expression: 0.57
Gene KPTN
  RNA-seq results: KPTN expression: 0.03
Gene KRIT1
  RNA-seq results: KRIT1 expression: −0.32
Gene KRT18
  RNA-seq results: KRT18 expression: 0.14
Gene KYNU
  RNA-seq results: KYNU expression: −0.28
Gene LAMB2
  RNA-seq results: LAMB2 expression: 0.14
Gene LCAT
  RNA-seq results: LCAT expression: 0.18
Gene LDHB
  RNA-seq results: LDHB expression: −0.23
Gene LDLR
  RNA-seq results: LDLR expression: 0.23
Gene LDLRAP1
  RNA-seq results: LDLRAP1 expression: 0.03
Gene LIPC
  RNA-seq results: LIPC expression: −0.23
Gene LIPT1
  RNA-seq results: LIPT1 expression: −0.63
Gene LMNB2
  RNA-seq results: LMNB2 expression: 0.36
Gene LPA
  RNA-seq results: LPA expression: 0.04
Gene LPIN1
  RNA-seq results: LPIN1 expression: −0.08
Gene LPIN2
  RNA-seq results: LPIN2 expression: 0.08
Gene LRBA
  RNA-seq results: LRBA expression: −0.14
Gene LRP5
  RNA-seq results: LRP5 expression: 0.14
Gene LYRM4
  RNA-seq results: LYRM4 expression: −0.40
Gene LYST
  RNA-seq results: LYST expression: −0.05
Gene MAN1A1
  RNA-seq results: MAN1A1 expression: −0.36
Gene MAN2B1
  RNA-seq results: MAN2B1 expression: 0.14
Gene MAOB
  RNA-seq results: MAOB expression: −0.07
Gene MAT1A
  RNA-seq results: MAT1A expression: 0.14
Gene MBL2
  RNA-seq results: MBL2 expression: −0.25
